Earlier results on one molecule are cited in patent US20240245680A1, “Methods of Treating Retinal Vasculopathies” (Unity Biotechnology, Inc., priority 2021, published 2024).

In one series the target is T1, glutaminase C (GAC) (Homo sapiens, UniProt O94925).
T1 sequence (O94925 55-598 isoform O94925-3 limits assumed): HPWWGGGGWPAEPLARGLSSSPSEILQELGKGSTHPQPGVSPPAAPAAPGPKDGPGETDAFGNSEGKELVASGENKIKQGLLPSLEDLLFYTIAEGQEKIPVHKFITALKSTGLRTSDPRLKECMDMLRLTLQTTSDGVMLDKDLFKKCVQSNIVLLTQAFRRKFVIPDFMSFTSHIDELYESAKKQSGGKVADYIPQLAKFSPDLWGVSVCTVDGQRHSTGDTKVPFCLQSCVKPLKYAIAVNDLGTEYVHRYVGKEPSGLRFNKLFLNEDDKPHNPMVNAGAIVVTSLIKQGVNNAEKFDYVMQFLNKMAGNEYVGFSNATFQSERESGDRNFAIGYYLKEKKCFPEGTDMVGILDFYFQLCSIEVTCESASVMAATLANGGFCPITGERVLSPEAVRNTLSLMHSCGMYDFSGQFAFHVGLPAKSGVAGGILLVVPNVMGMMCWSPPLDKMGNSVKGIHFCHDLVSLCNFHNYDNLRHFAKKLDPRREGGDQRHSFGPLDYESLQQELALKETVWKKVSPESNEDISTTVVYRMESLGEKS
Conditions: cited from earlier work.

Another series concerns the target T2, GLS2 (Homo sapiens, UniProt Q9UI32).
T2 sequence (Q9UI32 15-602): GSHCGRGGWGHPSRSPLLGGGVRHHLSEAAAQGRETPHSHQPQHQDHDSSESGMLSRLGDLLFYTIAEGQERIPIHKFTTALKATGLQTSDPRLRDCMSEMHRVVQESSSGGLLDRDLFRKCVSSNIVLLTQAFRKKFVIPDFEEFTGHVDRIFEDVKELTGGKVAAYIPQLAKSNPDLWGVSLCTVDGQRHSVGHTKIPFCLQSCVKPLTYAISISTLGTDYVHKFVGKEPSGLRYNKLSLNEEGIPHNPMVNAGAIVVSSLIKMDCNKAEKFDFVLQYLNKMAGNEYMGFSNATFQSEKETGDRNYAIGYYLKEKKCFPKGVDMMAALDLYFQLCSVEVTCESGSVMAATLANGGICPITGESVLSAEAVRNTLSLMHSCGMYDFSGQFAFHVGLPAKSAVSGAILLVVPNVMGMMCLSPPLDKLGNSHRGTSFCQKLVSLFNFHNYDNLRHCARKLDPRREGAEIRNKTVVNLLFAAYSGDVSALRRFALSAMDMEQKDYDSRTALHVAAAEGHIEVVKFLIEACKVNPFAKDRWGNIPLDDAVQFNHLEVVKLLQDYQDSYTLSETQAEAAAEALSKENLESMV
The note with it: cited from earlier work.

In general, IC50 refers to the concentration that inhibits the measured activity by half. In the case of `O=C(Cc1ccccc1)Nc1nnc(NC2CCN(c3nnc(NC(=O)Cc4ccccc4)s3)CC2)s1` [UPGL00004], the half-inhibitory concentration (IC50) at glutaminase C (GAC) is 29 nM. Besides, the “selectivity for GAC over GLS2” value on GLS2 is recorded as “high selectivity”.
